Assay results taken from US12128049B2, “Dosage regimen of paliperidone palmitate extended-release injectable suspension” (Luye Innomind Pharma Shijiazhuang Co., Ltd., priority 2017, dated 2024).
“And” between values parts separate entries of the source, which are not always exact repeats. Equal values may be shown once.

What was measured:
[1] = PK in beagle dogs under RLD regimen: IM 4.6 mg/kg day 1, 3.1 mg/kg day 8, 2.3 mg/kg day 36 (Groups I, IV); assay type: in vivo
Protocol: (§1) 20 healthy male beagle dogs (average weight about 11 kg) were randomly divided into 5 groups (Groups I-V) with 4 dogs in each group. Each animal was assigned its own number (#1-#20).
(§2) Group I animals (#1-#4) and Group IV animals (#13-#16) were tested under RLD regimen. Group II animals (#5-#8) were tested under Regimen A. Group III animals (#9-#12) and Group V animals (#17-#20) were tested under Regimen B. Table 5 summarizes the respective human dosages (mg of paliperidone) and the equivalent animal dosages (converted to mg/kg) and the dosing intervals under each dosing regimen.
(§3) The animals in each group received intramuscular injections according to the dosing regimen assigned to the group. Blood samples (1 ml/collection) were collected from the forelimb vein of each beagle immediate before administration (at 0 h), and thereafter at time intervals of 6 h (day 1), 24 hr (day 2), day 3, day 5, day 8 (prior to dosing for groups receiving RLD regimen), day 9, day 11, day 13, day 15 (prior to dosing for groups receiving Regimen A), day 17, day 19, day 22, day 24, day 26, day 29 (prior to dosing for groups receiving Regimen A), day 30, day 32, day 34, day 36 (prior to dosing for groups receiving RLD and Regimen A), day 37, day 39, day 42, day 45, day 47, day 50, day 53, day 57, day 64, day 71, day 78, and day 85. The blood samples were placed in heparinized centrifuge tubes and centrifuged for 10 min (3500 rpm). The plasma was separated, collected and stored under −80° C.

[2] = PK in beagle dogs under Regimen A: IM 6.2 mg/kg day 1, 1.5 mg/kg day 15, 2.3 mg/kg day 36 (Group II); assay type: in vivo
Protocol: as §1, §2, §3

[3] = PK in beagle dogs under Regimen B: IM 6.9 mg/kg day 1, 3.1 mg/kg day 29 (Groups III, V); assay type: in vivo
Protocol: as §1, §2, §3

[4] = over a broad pH range; cited from earlier work
[5] = Regimen B, Group V vs Group IV (FIG. 10B)

CCCCCCCCCCCCCCCC(=O)OC1CCCn2c1nc(C)c(CCN1CCC(c3noc4cc(F)ccc34)CC1)c2=O (racemic) [paliperidone palmitate, (9RS)-3-[2-[4-(6-Fluoro-1,2-benzisoxazol-3-yl)piperidin-1-yl]ethyl]-2-methyl-4-oxo-6,7,8,9-tetrahydro-4H-pyrido[1,2-a]pyrimadin-9-yl hexadecanoate]
AUC(0-t) ([1]; Group I, individual dogs): 3632.18 µg·days/L and 2010.03 µg·days/L and 3477.47 µg·days/L and 4210.47 µg·days/L | AUC(0-∞) ([1]; Group I, individual dogs): 3682.95 µg·days/L and 2012.83 µg·days/L and 4010.14 µg·days/L and 4214.96 µg·days/L | AUC(0-t) ([1]; Group I, mean): 3332.54 µg·days/L | AUC(0-∞) ([1]; Group I, mean): 3480.22 µg·days/L | AUC(0-t) ([1]; Group IV, individual dogs): 2528.69 µg·days/L and 3241.40 µg·days/L and 3191.02 µg·days/L and 1190.27 µg·days/L | AUC(0-∞) ([1]; Group IV, individual dogs): 2546.38 µg·days/L and 3312.15 µg·days/L and 3194.15 µg·days/L and 1311.82 µg·days/L | AUC(0-t) ([1]; Group IV, mean): 2537.85 µg·days/L | AUC(0-∞) ([1]; Group IV, mean): 2591.12 µg·days/L | AUC(0-t) ([2]; individual dogs): 4069.12 µg·days/L and 3146.75 µg·days/L and 3336.44 µg·days/L and 2282.89 µg·days/L | AUC(0-∞) ([2]; individual dogs): 4285.47 µg·days/L and 3544.02 µg·days/L and 3446.66 µg·days/L and 2612.80 µg·days/L | AUC(0-t) ([2]; mean): 3208.80 µg·days/L | AUC(0-∞) ([2]; mean): 3472.24 µg·days/L | overall drug exposures (AUC) ([3]; RLD Regimen, Regimen A and Regimen B, Groups I-III (FIG. 10A)): comparable for all three Regimens | Cmax vs RLD Regimen ([3]; Regimen B, Group III vs Group I (FIG. 10A)): comparable to that of RLD Regimen | Cmax vs RLD Regimen [3, 5]: comparable to that of RLD Regimen | time to Cmax vs RLD Regimen [3, 5]: reached Cmax earlier | trough (day 28) vs RLD Regimen [3, 5]: comparable to the same-day concentration of RLD Regimen and higher than the trough of the RLD Regimen | solubility in aqueous media [4]: practically insoluble
